# Data published in ChEMBL document CHEMBL5518174 (Eur J Med Chem, 2024).
# Columns and labels:
# [1] = Effect on HDAC6 protein expression in human MDA-MB-231 cells assessed as fold change at 0.1 uM incubated for 24 hrs by immunoblotting analysis (reference value: 1); format: functional
# [2] = Downregulation of HDAC6 protein expression in human NCI-H1975 cells assessed as fold change at 0.1 uM incubated for 24 hrs by immunoblotting analysis (reference value: 1); format: functional
# [3] = Effect on HDAC11 protein expression in human NCI-H1975 cells assessed as fold change at 0.05 uM incubated for 24 hrs by immunoblotting analysis (reference value: 1); format: functional
# [4] = Toxicity in athymic nude BALB/c mouse xenografted with human NCI-H1975 cells assessed as effect on creatinine level at 6 mg/kg, ip administered 5 times a week for 3 weeks and measured on day 22; format: organism-based; settings: in vivo, 528 h, time 22 day
# [5] = Toxicity in athymic nude BALB/c mouse xenografted with human NCI-H1975 cells assessed as effect on BUN level at 6 mg/kg, ip administered 5 times a week for 3 weeks and measured on day 22; format: organism-based; settings: in vivo, 528 h, time 22 day
# [6] = Upregulation of acetylated H3 protein expression in human NCI-H1975 cells assessed as fold change at 0.05 uM incubated for 24 hrs by immunoblotting analysis (reference value: 1); format: functional
# [7] = Upregulation of acetylated H4 protein expression in human MDA-MB-231 cells assessed as fold change at 0.05 uM incubated for 24 hrs by immunoblotting analysis (reference value: 1); format: functional
# [8] = Downregulation of HDAC3 protein expression in human NCI-H1975 cells assessed as fold change at 0.05 uM incubated for 24 hrs by immunoblotting analysis (reference value: 1); format: functional
# [9] = biological target: Histone deacetylase; assay: Inhibition of HDAC in human HeLa cells nuclear extract; format: subcellular, Nucleus
# [10] = system: NCI-H1975; assay: cells; format: functional, cell-based; settings: Homo sapiens, NCI-H1975, 48 h
# Description: Cytotoxicity against human NCI-H1975 cells assessed as inhibition of cell growth incubated for 48 hrs by Celltiter-glo assay
# [11] = system: MDA-MB-231; assay: Antitumor activity against human MDA-MB-231 cells xenografted in athymic nude BALB/c mouse assessed as average tumor size at 3 mg/kg, ip administered 5 times a week for 7 weeks and measured on day 47 (reference value: 15.4 +/- 5.3 mm3); format: functional; settings: time 47 day
# [12] = Downregulation of HDAC9 protein expression in human NCI-H1975 cells assessed as fold change at 0.1 uM incubated for 24 hrs by immunoblotting analysis (reference value: 1); format: functional
# [13] = Downregulation of HDAC8 protein expression in human NCI-H1975 cells assessed as fold change at 0.05 uM incubated for 24 hrs by immunoblotting analysis (reference value: 1); format: functional
# [14] = Downregulation of HDAC4 protein expression in human NCI-H1975 cells assessed as fold change at 0.1 uM incubated for 24 hrs by immunoblotting analysis (reference value: 1); format: functional
# [15] = Downregulation of HDAC11 protein expression in human MDA-MB-231 cells assessed as fold change at 0.1 uM incubated for 24 hrs by immunoblotting analysis (reference value: 1); format: functional
# [16] = Downregulation of HDAC6 protein expression in human NCI-H1975 cells assessed as fold change at 0.05 uM incubated for 24 hrs by immunoblotting analysis (reference value: 1); format: functional
# [17] = Downregulation of HDAC6 protein expression in human MDA-MB-231 cells assessed as fold change at 0.05 uM incubated for 24 hrs by immunoblotting analysis (reference value: 1); format: functional
# [18] = Effect on HDAC2 protein expression in human MDA-MB-231 cells assessed as fold change at 0.1 uM incubated for 24 hrs by immunoblotting analysis (reference value: 1); format: functional
# [19] = Downregulation of HDAC7 protein expression in human MDA-MB-231 cells assessed as fold change at 0.1 uM incubated for 24 hrs by immunoblotting analysis (reference value: 1); format: functional
# [20] = Toxicity in athymic nude BALB/c mouse xenografted with human MDA-MB-231 cells assessed as effect on AST level in serum at 3 mg/kg, ip administered 5 times a week for 7 weeks; format: organism-based; settings: in vivo, 1176 h
# [21] = Toxicity in athymic nude BALB/c mouse xenografted with human NCI-H1975 cells assessed as reduction in body weight at 6 mg/kg, ip administered 5 times a week for 3 weeks and measured on day 22; format: organism-based; settings: in vivo, 528 h, time 22 day
# [22] = Downregulation of HDAC7 protein expression in human MDA-MB-231 cells assessed as fold change at 0.05 uM incubated for 24 hrs by immunoblotting analysis (reference value: 1); format: functional
# [23] = Toxicity in athymic nude BALB/c mouse xenografted with human NCI-H1975 cells assessed as effect on AST level at 6 mg/kg, ip administered 5 times a week for 3 weeks and measured on day 22; format: organism-based; settings: in vivo, 528 h, time 22 day
smiles,measurement,setting,value
CCOc1ccc(-c2nc(C(=O)NCc3ccc(C(=O)NO)cc3)c3[nH]c(=O)n(-c4cccnc4OC)c3n2)cn1,fold change (FC),[1],1.17
same,fold change (FC),[2],0.41
same,fold change (FC),[3],1.15
same,Activity,[4],Non-Toxic
same,Activity,[5],Non-Toxic
same,fold change (FC),[6],1.77
same,fold change (FC),[7],1.74
same,fold change (FC),[8],0.82
same,IC50,[9],40 nM
same,IC50,[10],1200 nM
same,Activity,[11],1.7 mm3
same,fold change (FC),[12],0.33
same,fold change (FC),[13],0.85
same,fold change (FC),[14],0.6
same,fold change (FC),[15],0.2
same,fold change (FC),[16],0.6
same,fold change (FC),[17],0.47
same,fold change (FC),[18],1.25
same,fold change (FC),[19],0.58
same,Activity,[20],Non-Toxic
same,Activity,[21],Non-Toxic
same,fold change (FC),[22],0.77
same,Activity,[23],Non-Toxic
